# From paper PMC10291553, “Exploring Structure–Activity Relationships in Photodynamic Therapy Anticancer Agents Based on Ir(III)-COUPY Conjugates” (Journal of Medicinal Chemistry, 2023)
# Read-outs that look alike come from different tables or passages of the source.
# Experiments:
# [1] = Singlet oxygen generation, time-resolved NIR phosphorescence at 1275 nm; assay type: physicochemical; conditions: for singlet oxygen quantum yields in DCM: excitation at 355 and 532 nm; for singlet oxygen quantum yield at 355 nm, ACN / singlet oxygen quantum yield at 355 nm, DCM / singlet oxygen quantum yield at 355 nm, PBS: excitation 355 nm
# Description: Singlet oxygen generation was studied by time-resolved near-infrared phosphorescence by means of a customized setup. Briefly, a pulsed Nd:YAG laser (FTSS355-Q, Crystal Laser, Berlin, Germany) working at a 1 or 10 kHz repetition rate at 355 nm (0.5 μJ per pulse) or 532 nm (1.2 μJ per pulse) was used to excite the sample. A 1064 nm rugate notch filter (Edmund Optics) and an uncoated SKG-5 filter (CVI Laser Corporation) were placed in the laser path to remove any NIR emission. The light emitted by the sample was filtered with a 1000 nm long-pass filter (Edmund Optics) and later by a narrow bandpass filter at 1275 nm (BK-1270-70-B, bk Interferenzoptik). A thermoelectric-cooled NIR-sensitive photomultiplier tube assembly (H9170-45, Hamamatsu Photonics, Hamamatsu, Japan) was used as a detector. […] The time dependence of the ^1O2 phosphorescence with the signal intensity S(t) is described by eq 2, in which τT and τΔ are the lifetimes of the photosensitizer triplet state and of ^1O2 respectively, and S0 is a preexponential parameter proportional to ΦΔ. [drawing 2] 2
# The ΦΔ values of the different samples were obtained by comparing S0 values of optically matched samples and using an appropriate reference by means of eq 3. [drawing 3] 3
# [2] = Superoxide anion radical generation using DHR123; assay type: physicochemical; conditions: 10 μM in PBS (0.2% DMSO); green light 505 nm
# Experimental: All compounds (10 μM) were prepared in PBS (0.2% DMSO). To this solution, DHR123 was added so that its final concentration was 10 μM. Then, the samples were irradiated in 1.0 × 0.5 cm cuvette by green light (505 nm centered LED) for indicated time intervals. Immediately, the fluorescence spectra were collected by using a Photon Technology International (PTI) fluorimeter. The excitation wavelength was set to 500 nm, the excitation and emission slit widths were 2 nm, and the integration time was set to 1 s.
# [3] = test system: A2780cis cells; assay: Cellular accumulation by ICP-MS; assay type: cell-based; conditions: 2 h treatment at 10 μM
# Experimental: Briefly, A2780cis cells were seeded onto a 12-well plate (3 × 10^5 cells/well). Treatments with tested agents for 2 h were applied at 10 μM. Cisplatin was included for comparative purposes. Cells were then trypsinized, and pellets were counted. […] Three independent experiments were performed (n = 2 replicates).
# [4] = test system: A2780cis cells; assay: Cell death induction (Annexin V/PI staining, FSC/SSC flow cytometry); assay type: cell-based; conditions: 10 μM; for mode of cell death (Annexin V/Propidium Iodide): 1 h + 1 h 520 nm, 24 h recovery; for secondary cell population with low FSC/SSC ratios (non-viable morphology): 1 h, 520 nm 1 h
# Experimental: Cell death induction was evaluated using the Annexin V-FITC/Propidium iodide (AV/PI) dual staining method. Briefly, A2780cis cells were seeded in 12-well plates at a density of 2 × 10^5 cells/well and incubated overnight at 310 K. Tested compounds (10 μM) were added, following the described treatment schedule (1 h incubation + 1 h irradiation with 520 nm light). Irradiated, non-treated cells served as the control group. After 24 h of the drug-free recovery period, cells were harvested by trypsinization, washed with PBS and centrifuged, and the pellets were resuspended in 200 μL of a binding buffer as instructed by the manufacturer (Cayman). The resuspended cell solution was left at room temperature in the dark for 15 min before analysis by flow cytometry (FACSCalibur BecktonDickinson; 10^4 events acquired per sample). Cells were visualized using λexc = 488 channels and registered at 525 nm and 620 nm for Annexin V and propidium iodide in FL1 and FL2 channels, respectively. Cell populations were classified as follows: AV^-/PI^- (viable cells); AV^-/PI^+ (necrotic cells); AV^+/PI^- and AV^+/PI^+ (apoptotic cells). Alternatively, A2780cis cells were subjected to flow cytometry after phototreatments and morphological changes were analyzed using FSC and SSC contour plots. Data were analyzed using FlowJo software. Three independent experiments were performed.
# [5] = design: method as in earlier work; conditions: previously-reported parent compounds, cited from earlier work; for singlet oxygen quantum yield at 355 nm, ACN / singlet oxygen quantum yield at 355 nm, DCM / singlet oxygen quantum yield at 355 nm, PBS: excitation 355 nm
# [6] = excitation 532 nm, room temperature
structure (smiles),measurement,setting,value
CCCCn1c2[n+](c3cc(C(=O)NCCCNC(=O)C[n+]4ccc(/C(C#N)=C5/C=C(C)c6cc7c8c(c6O5)CCCN8CCC7)cc4)ccc31)[Ir-3]13([c]4ccccc4-c4[nH]c5ccccc5[n+]41)([c]1ccccc1-c1[nH]c4ccccc4[n+]13)[n+]1c-2ccc2ccccc21 [3c],singlet oxygen quantum yields in DCM,[1]; DCM,ca. 0.20
same,superoxide anion radical generation (DHR123 fluorescence),[2],fastest rates in superoxide generation
same,Intracellular Ir levels,[3],461 ± 74 ng/10^6 cells
same,mode of cell death (Annexin V/Propidium Iodide),[4],photoinduced necrotic cell death
same,secondary cell population with low FSC/SSC ratios (non-viable morphology),[4],vastly induced these secondary cell populations
CCCCn1c2[n+](c3cc(C(=O)NC[C@H]4CC[C@H](C(=O)NCCCNC(=O)C[n+]5ccc(/C(C#N)=C6/C=C(C)c7ccc(N(CC)CC)cc7O6)cc5)CC4)ccc31)[Ir-3]13([c]4ccccc4-c4[nH]c5ccccc5[n+]41)([c]1ccccc1-c1[nH]c4ccccc4[n+]13)[n+]1c-2ccc2ccccc21 [3e],mode of cell death (Annexin V/Propidium Iodide),[4],photoinduced necrotic cell death
same,secondary cell population with low FSC/SSC ratios (non-viable morphology),[4],vastly induced these secondary cell populations
CCCCn1c2[n+](c3cc(C(=O)OC)ccc31)[Ir-3]13([c]4ccccc4-c4[nH]c5ccccc5[n+]41)([c]1ccccc1-c1[nH]c4ccccc4[n+]13)[n+]1c-2ccc2ccccc21 [2a],Intracellular Ir levels,[3],276 ± 12 ng/10^6 cells
same,"singlet oxygen quantum yield at 355 nm, ACN",[5]; ACN,0.42
same,"singlet oxygen quantum yield at 355 nm, DCM",[5]; DCM,0.23
same,"singlet oxygen quantum yield at 355 nm, PBS",[5]; PBS,< 0.01
CCCCn1c2[n+](c3cc(C(=O)NCCCNC(=O)C[n+]4ccc(/C(C#N)=C5/C=C(C)c6ccc(N(CC)CC)cc6O5)cc4)ccc31)[Ir-3]13([c]4ccccc4-c4[nH]c5ccccc5[n+]41)([c]1ccccc1-c1[nH]c4ccccc4[n+]13)[n+]1c-2ccc2ccccc21 [3a],mode of cell death (Annexin V/Propidium Iodide),[4],photoinduced necrotic cell death
same,secondary cell population with low FSC/SSC ratios (non-viable morphology),[4],vastly induced these secondary cell populations
CC1=C/C(=C(\C#N)c2cc[n+](C)cc2)Oc2c1cc1c3c2CCCN3CCC1 [1c],"singlet oxygen quantum yield at 355 nm, ACN",[1]; room temperature,0
same,"singlet oxygen quantum yield at 532 nm, ACN",[1]; [6],0.01
same,"singlet oxygen quantum yield at 355 nm, DCM","[1]; DCM, room temperature",0.03
same,"singlet oxygen quantum yield at 532 nm, DCM","[1]; DCM, excitation 532 nm, room temperature",0.03
same,"singlet oxygen quantum yield at 355 nm, PBS",[1]; room temperature,0
same,"singlet oxygen quantum yield at 532 nm, PBS",[1]; [6],< 0.01
CC1=C/C(=C(\C#N)c2cc[n+](C)cc2)Oc2ccccc21 [1b],"singlet oxygen quantum yield at 355 nm, ACN",[1]; room temperature,0.01
same,"singlet oxygen quantum yield at 532 nm, ACN",[1]; [6],< 0.01
same,"singlet oxygen quantum yield at 355 nm, DCM","[1]; DCM, room temperature",0.01
same,"singlet oxygen quantum yield at 355 nm, PBS",[1]; room temperature,0
same,"singlet oxygen quantum yield at 532 nm, PBS",[1]; [6],< 0.01
CCCCn1c2[n+](c3cc(C(=O)NCCCCCC(=O)NCCCNC(=O)C[n+]4ccc(/C(C#N)=C5/C=C(C)c6ccc(N(CC)CC)cc6O5)cc4)ccc31)[Ir-3]13([c]4ccccc4-c4[nH]c5ccccc5[n+]41)([c]1ccccc1-c1[nH]c4ccccc4[n+]13)[n+]1c-2ccc2ccccc21 [3d],mode of cell death (Annexin V/Propidium Iodide),[4],photoinduced necrotic cell death
same,secondary cell population with low FSC/SSC ratios (non-viable morphology),[4],vastly induced these secondary cell populations
CCCCn1c2[n+](c3cc(C(=O)NCCCNC(=O)C[n+]4ccc(/C(C#N)=C5/C=C(C)c6ccccc6O5)cc4)ccc31)[Ir-3]13([c]4ccccc4-c4[nH]c5ccccc5[n+]41)([c]1ccccc1-c1[nH]c4ccccc4[n+]13)[n+]1c-2ccc2ccccc21 [3b],singlet oxygen quantum yields in DCM,[1]; DCM,ca. 0.20
same,superoxide anion radical generation (DHR123 fluorescence),[2],highest maximum emission intensity of superoxide generation
same,secondary cell population with low FSC/SSC ratios (non-viable morphology),[4],did not produce such changes
CCN(CC)c1ccc2c(c1)O/C(=C(/C#N)c1cc[n+](C)cc1)C=C2C [1a],"singlet oxygen quantum yield at 355 nm, ACN",[5]; ACN,< 0.01
same,"singlet oxygen quantum yield at 532 nm, ACN","[5]; ACN, excitation 532 nm",< 0.01
same,"singlet oxygen quantum yield at 355 nm, DCM",[5]; DCM,< 0.01
same,"singlet oxygen quantum yield at 532 nm, DCM","[5]; DCM, excitation 532 nm",0.03
same,"singlet oxygen quantum yield at 355 nm, PBS",[5]; PBS,0
same,"singlet oxygen quantum yield at 532 nm, PBS","[5]; PBS, excitation 532 nm",< 0.01
